Source: PubChem BioAssay (NCI)
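Grown in 96-well plates, cells were treated for 48 hours with each compound at five concentrations. Insufficient inhibition: endpoint recorded as highest concentration tested. GI50 = concentration required for 50% inhibition of growth. TGI: concentration producing complete growth inhibition.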

Key:
Experiment in all cases: NCI tumour cell line growth inhibition, 48 h
SW-620 colon = test system: SW-620 colon
A549 NSCLC = test system: A549 NSCLC
SK-MEL-28 melanoma = test system: SK-MEL-28 melanoma
SR leukemia = test system: SR leukemia
M14 melanoma = test system: M14 melanoma
UO-31 renal = test system: UO-31 renal
HOP-92 NSCLC = test system: HOP-92 NSCLC
OVCAR-8 ovarian = test system: OVCAR-8 ovarian
OVCAR-5 ovarian = test system: OVCAR-5 ovarian
U251 CNS = test system: U251 CNS
SK-MEL-2 melanoma = test system: SK-MEL-2 melanoma
T-47D breast = test system: T-47D breast
NCI-H226 lung = test system: NCI-H226 lung
SN12C renal = test system: SN12C renal
CCRF-CEM leukemia = test system: CCRF-CEM leukemia
MDA-MB-435 = test system: MDA-MB-435
MCF7 breast = test system: MCF7 breast
SNB-75 CNS = test system: SNB-75 CNS
HCC-2998 colon = test system: HCC-2998 colon
NCI-H460 lung = test system: NCI-H460 lung
OVCAR-3 ovarian = test system: OVCAR-3 ovarian
COLO 205 colon = test system: COLO 205 colon
SNB-19 CNS = test system: SNB-19 CNS
HT29 colon = test system: HT29 colon
NCI-H522 lung = test system: NCI-H522 lung
ACHN renal = test system: ACHN renal
A498 renal = test system: A498 renal
SK-OV-3 ovarian = test system: SK-OV-3 ovarian
SF-539 CNS = test system: SF-539 CNS
K-562 leukemia = test system: K-562 leukemia
MDA-MB-231 breast = test system: MDA-MB-231 breast
CAKI-1 renal = test system: CAKI-1 renal
BT-549 breast = test system: BT-549 breast
HS 578T breast = test system: HS 578T breast
TK-10 renal = test system: TK-10 renal
PC-3 prostate = test system: PC-3 prostate
EKVX NSCLC = test system: EKVX NSCLC
KM12 colon = test system: KM12 colon
IGROV1 ovarian = test system: IGROV1 ovarian
HCT-116 colon = test system: HCT-116 colon
SK-MEL-5 melanoma = test system: SK-MEL-5 melanoma
HCT-15 colon = test system: HCT-15 colon
UACC-62 melanoma = test system: UACC-62 melanoma
SF-268 CNS = test system: SF-268 CNS
HOP-62 NSCLC = test system: HOP-62 NSCLC
HL-60(TB) leukemia = test system: HL-60(TB) leukemia
DU-145 prostate = test system: DU-145 prostate
786-0 renal = test system: 786-0 renal
LOX IMVI melanoma = test system: LOX IMVI melanoma
RXF 393 renal = test system: RXF 393 renal
MOLT-4 leukemia = test system: MOLT-4 leukemia
SF-295 CNS = test system: SF-295 CNS
OVCAR-4 ovarian = test system: OVCAR-4 ovarian
RPMI-8226 leukemia = test system: RPMI-8226 leukemia
NCI/ADR-RES ovarian = test system: NCI/ADR-RES ovarian
UACC-257 melanoma = test system: UACC-257 melanoma

With Cc1nc2ccccn2c1NC(=O)NNC(=S)Nc1ccc(F)cc1 the GI50 (SW-620 colon) was over 100 µM, the TGI (SW-620 colon) was over 100 µM and the GI50 (A549 NSCLC) was over 100 µM. For the same compound, the TGI (A549 NSCLC) was over 100 µM, the GI50 (SK-MEL-28 melanoma) was over 100 µM and the TGI (SK-MEL-28 melanoma) was over 100 µM. The GI50 (SR leukemia) was 19.5 µM, the TGI (SR leukemia) was over 100 µM and the GI50 (M14 melanoma) was over 100 µM. For the same compound, the TGI (M14 melanoma) was over 100 µM, the GI50 (UO-31 renal) was over 100 µM and the TGI (UO-31 renal) was over 100 µM. The GI50 (HOP-92 NSCLC) was over 100 µM, the TGI (HOP-92 NSCLC) was over 100 µM and the GI50 (OVCAR-8 ovarian) was over 100 µM. The TGI (OVCAR-8 ovarian) was over 100 µM, the GI50 (OVCAR-5 ovarian) was over 100 µM and the TGI (OVCAR-5 ovarian) was over 100 µM. It also gave a GI50 (U251 CNS) of over 100 µM, a TGI (U251 CNS) of over 100 µM and a GI50 (SK-MEL-2 melanoma) of over 100 µM. It also gave a TGI (SK-MEL-2 melanoma) of over 100 µM, a GI50 (T-47D breast) of over 100 µM and a TGI (T-47D breast) of over 100 µM. The GI50 (NCI-H226 lung) was over 100 µM, the TGI (NCI-H226 lung) was over 100 µM and the GI50 (SN12C renal) was over 100 µM. The TGI (SN12C renal) was over 100 µM, the GI50 (CCRF-CEM leukemia) was over 100 µM and the TGI (CCRF-CEM leukemia) was over 100 µM. For the same compound, the GI50 (MDA-MB-435) was over 100 µM, the TGI (MDA-MB-435) was over 100 µM and the GI50 (MCF7 breast) was over 100 µM. The TGI (MCF7 breast) was over 100 µM, the GI50 (SNB-75 CNS) was over 100 µM and the TGI (SNB-75 CNS) was over 100 µM. The GI50 (HCC-2998 colon) was over 100 µM, the TGI (HCC-2998 colon) was over 100 µM and the GI50 (NCI-H460 lung) was over 100 µM. For the same compound, the TGI (NCI-H460 lung) was over 100 µM, the GI50 (OVCAR-3 ovarian) was over 100 µM and the TGI (OVCAR-3 ovarian) was over 100 µM. The GI50 (COLO 205 colon) was over 100 µM, the TGI (COLO 205 colon) was over 100 µM and the GI50 (SNB-19 CNS) was over 100 µM. The TGI (SNB-19 CNS) was over 100 µM, the GI50 (HT29 colon) was over 100 µM and the TGI (HT29 colon) was over 100 µM. It also gave a GI50 (NCI-H522 lung) of over 100 µM, a TGI (NCI-H522 lung) of over 100 µM and a GI50 (ACHN renal) of over 100 µM. It also gave a TGI (ACHN renal) of over 100 µM, a GI50 (A498 renal) of over 100 µM and a TGI (A498 renal) of over 100 µM. It also gave a GI50 (SK-OV-3 ovarian) of over 100 µM, a TGI (SK-OV-3 ovarian) of over 100 µM and a GI50 (SF-539 CNS) of over 100 µM. It also gave a TGI (SF-539 CNS) of over 100 µM, a GI50 (K-562 leukemia) of over 100 µM and a TGI (K-562 leukemia) of over 100 µM. For the same compound, the GI50 (MDA-MB-231 breast) was over 100 µM, the TGI (MDA-MB-231 breast) was over 100 µM and the GI50 (CAKI-1 renal) was over 100 µM. It also gave a TGI (CAKI-1 renal) of over 100 µM, a GI50 (BT-549 breast) of over 100 µM and a TGI (BT-549 breast) of over 100 µM. For the same compound, the GI50 (HS 578T breast) was over 100 µM, the TGI (HS 578T breast) was over 100 µM and the GI50 (TK-10 renal) was over 100 µM. The TGI (TK-10 renal) was over 100 µM, the GI50 (PC-3 prostate) was over 100 µM and the TGI (PC-3 prostate) was over 100 µM. It also gave a GI50 (EKVX NSCLC) of over 100 µM, a TGI (EKVX NSCLC) of over 100 µM and a GI50 (KM12 colon) of over 100 µM. The TGI (KM12 colon) was over 100 µM, the GI50 (IGROV1 ovarian) was over 100 µM and the TGI (IGROV1 ovarian) was over 100 µM. It also gave a GI50 (HCT-116 colon) of over 100 µM, a TGI (HCT-116 colon) of over 100 µM and a GI50 (SK-MEL-5 melanoma) of over 100 µM. For the same compound, the TGI (SK-MEL-5 melanoma) was over 100 µM, the GI50 (HCT-15 colon) was over 100 µM and the TGI (HCT-15 colon) was over 100 µM. The GI50 (UACC-62 melanoma) was over 100 µM, the TGI (UACC-62 melanoma) was over 100 µM and the GI50 (SF-268 CNS) was over 100 µM. For the same compound, the TGI (SF-268 CNS) was over 100 µM, the GI50 (HOP-62 NSCLC) was over 100 µM and the TGI (HOP-62 NSCLC) was over 100 µM. It also gave a GI50 (HL-60(TB) leukemia) of over 100 µM, a TGI (HL-60(TB) leukemia) of over 100 µM and a GI50 (DU-145 prostate) of over 100 µM. It also gave a TGI (DU-145 prostate) of over 100 µM, a GI50 (786-0 renal) of over 100 µM and a TGI (786-0 renal) of over 100 µM. For the same compound, the GI50 (LOX IMVI melanoma) was over 100 µM, the TGI (LOX IMVI melanoma) was over 100 µM and the GI50 (RXF 393 renal) was over 100 µM. It also gave a TGI (RXF 393 renal) of over 100 µM, a GI50 (MOLT-4 leukemia) of 20.4 µM and a TGI (MOLT-4 leukemia) of over 100 µM. It also gave a GI50 (SF-295 CNS) of over 100 µM, a TGI (SF-295 CNS) of over 100 µM and a GI50 (OVCAR-4 ovarian) of over 100 µM. For the same compound, the TGI (OVCAR-4 ovarian) was over 100 µM, the GI50 (RPMI-8226 leukemia) was over 100 µM and the TGI (RPMI-8226 leukemia) was over 100 µM. The GI50 (NCI/ADR-RES ovarian) was over 100 µM, the TGI (NCI/ADR-RES ovarian) was over 100 µM and the GI50 (UACC-257 melanoma) was over 100 µM. It also gave a TGI (UACC-257 melanoma) of over 100 µM.
